#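 Test compounds were applied to cells in 96-well plates for 48 hours at 5 doses. Here, GI50 denotes the concentration required for 50% inhibition of growth.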 The source made the active and inactive calls. Cut-off read from the data, not from the text of the source: active = GI50 up to about 1.1 µM and inactive = higher.
# Experiments:
# Assay in all cases: NCI tumour cell line growth inhibition, 48 h
# MOLT-4 = system: MOLT-4
# A549 = system: A549
# NCI-H460 = system: NCI-H460
# UACC-62 = system: UACC-62
# SK-MEL-5 = system: SK-MEL-5
# EKVX = system: EKVX
# K562 = system: K562
# HCT-116 = system: HCT-116
# SK-MEL-28 = system: SK-MEL-28
# DU-145 = system: DU-145
# ACHN = system: ACHN
# MDA-MB-435 = system: MDA-MB-435
# LOX IMVI = system: LOX IMVI
# RPMI-8226 = system: RPMI-8226
# SF-539 = system: SF-539
# OVCAR-8 = system: OVCAR-8
# OVCAR-3 = system: OVCAR-3
# PC-3 = system: PC-3
# NCI-H23 = system: NCI-H23
# BT-549 = system: BT-549
# KM12 = system: KM12
# MDA-MB-231 = system: MDA-MB-231
# UACC-257 = system: UACC-257
# HL-60 = system: HL-60
# SF-268 = system: SF-268
# TK-10 = system: TK-10
# CCRF-CEM = system: CCRF-CEM
# IGROV-1 = system: IGROV-1
# UO-31 = system: UO-31
# MDA-N = system: MDA-N
# HCT-15 = system: HCT-15
# OVCAR-5 = system: OVCAR-5
# Hs-578T = system: Hs-578T
# SNB-75 = system: SNB-75
# SK-OV-3 = system: SK-OV-3
# Malme-3M = system: Malme-3M
# SF-295 = system: SF-295
# NCI-H226 = system: NCI-H226
# SR = system: SR
# SNB-19 = system: SNB-19
# HT-29 = system: HT-29
# HCC 2998 = system: HCC 2998
# CAKI-1 = system: CAKI-1
# NCI-H522 = system: NCI-H522
# RXF 393 = system: RXF 393
# MCF7 = system: MCF7
# 786-0 = system: 786-0
# M14 = system: M14
# COLO 205 = system: COLO 205
# SN12C = system: SN12C
# NCI/ADR-RES = system: NCI/ADR-RES
# SW-620 = system: SW-620
# U-251 = system: U-251
# SK-MEL-2 = system: SK-MEL-2
# A498 = system: A498
# OVCAR-4 = system: OVCAR-4
# HOP-62 = system: HOP-62
# T47D = system: T47D
smiles,measurement,setting,value
CCOc1ccc(NC(=O)/C=C/c2ccco2)cc1,GI50,MOLT-4,40 µM (inactive)
same,GI50,A549,> 100 µM (inactive)
same,GI50,NCI-H460,43.8 µM (inactive)
same,GI50,UACC-62,> 100 µM (inactive)
same,GI50,SK-MEL-5,44.3 µM (inactive)
same,GI50,EKVX,87.3 µM (inactive)
same,GI50,K562,24.2 µM (inactive)
same,GI50,HCT-116,41.2 µM (inactive)
same,GI50,SK-MEL-28,> 100 µM (inactive)
same,GI50,DU-145,47 µM (inactive)
same,GI50,ACHN,> 100 µM (inactive)
same,GI50,MDA-MB-435,5.98 µM (inactive)
same,GI50,LOX IMVI,54.3 µM (inactive)
same,GI50,RPMI-8226,32.3 µM (inactive)
same,GI50,SF-539,26 µM (inactive)
same,GI50,OVCAR-8,85.9 µM (inactive)
same,GI50,OVCAR-3,> 10 µM (inactive)
same,GI50,PC-3,35.6 µM (inactive)
same,GI50,NCI-H23,> 100 µM (inactive)
same,GI50,BT-549,38 µM (inactive)
same,GI50,KM12,30.5 µM (inactive)
same,GI50,MDA-MB-231,> 100 µM (inactive)
same,GI50,UACC-257,72.9 µM (inactive)
same,GI50,HL-60,11.9 µM (inactive)
same,GI50,SF-268,78.7 µM (inactive)
same,GI50,TK-10,> 100 µM (inactive)
same,GI50,CCRF-CEM,34.8 µM (inactive)
same,GI50,IGROV-1,> 100 µM (inactive)
same,GI50,UO-31,87.1 µM (inactive)
same,GI50,MDA-N,12.3 µM (inactive)
same,GI50,HCT-15,41.2 µM
same,GI50,OVCAR-5,> 100 µM (inactive)
same,GI50,Hs-578T,65 µM (inactive)
same,GI50,SNB-75,84.3 µM (inactive)
same,GI50,SK-OV-3,32.4 µM (inactive)
same,GI50,Malme-3M,> 100 µM (inactive)
same,GI50,SF-295,61.8 µM (inactive)
same,GI50,NCI-H226,86.9 µM (inactive)
same,GI50,SR,28.8 µM (inactive)
same,GI50,SNB-19,> 100 µM (inactive)
same,GI50,HT-29,26.4 µM (inactive)
same,GI50,HCC 2998,35.2 µM (inactive)
same,GI50,CAKI-1,> 100 µM (inactive)
same,GI50,NCI-H522,> 100 µM (inactive)
same,GI50,RXF 393,67.1 µM (inactive)
same,GI50,MCF7,75.2 µM (inactive)
same,GI50,786-0,> 100 µM (inactive)
same,GI50,M14,58.2 µM (inactive)
same,GI50,COLO 205,36.1 µM (inactive)
same,GI50,SN12C,79.6 µM (inactive)
same,GI50,NCI/ADR-RES,30.8 µM (inactive)
same,GI50,SW-620,> 100 µM (inactive)
same,GI50,U-251,33.8 µM (inactive)
same,GI50,SK-MEL-2,> 100 µM (inactive)
same,GI50,A498,42.7 µM (inactive)
COP(=O)(Cc1ccccc1)Cc1ccccc1,GI50,MOLT-4,> 100 µM (inactive)
same,GI50,A549,> 100 µM (inactive)
same,GI50,NCI-H460,> 100 µM (inactive)
same,GI50,UACC-62,> 100 µM (inactive)
same,GI50,OVCAR-4,> 100 µM (inactive)
same,GI50,SK-MEL-5,> 100 µM (inactive)
same,GI50,EKVX,> 100 µM (inactive)
same,GI50,K562,> 100 µM (inactive)
same,GI50,HCT-116,> 100 µM (inactive)
same,GI50,SK-MEL-28,> 100 µM (inactive)
same,GI50,DU-145,> 100 µM (inactive)
same,GI50,ACHN,> 100 µM (inactive)
same,GI50,LOX IMVI,> 100 µM (inactive)
same,GI50,RPMI-8226,> 100 µM (inactive)
same,GI50,HOP-62,> 100 µM (inactive)
same,GI50,SF-539,> 100 µM (inactive)
same,GI50,OVCAR-8,> 100 µM (inactive)
same,GI50,PC-3,> 100 µM (inactive)
same,GI50,NCI-H23,> 100 µM (inactive)
same,GI50,BT-549,> 100 µM (inactive)
same,GI50,MDA-MB-231,> 100 µM (inactive)
same,GI50,UACC-257,> 100 µM (inactive)
same,GI50,HL-60,> 100 µM (inactive)
same,GI50,SF-268,> 100 µM (inactive)
same,GI50,TK-10,> 100 µM (inactive)
same,GI50,CCRF-CEM,> 100 µM (inactive)
same,GI50,IGROV-1,> 100 µM (inactive)
same,GI50,UO-31,> 100 µM (inactive)
same,GI50,HCT-15,> 100 µM
same,GI50,OVCAR-5,> 100 µM (inactive)
same,GI50,Hs-578T,> 100 µM (inactive)
same,GI50,SNB-75,> 100 µM (inactive)
same,GI50,SK-OV-3,> 100 µM (inactive)
same,GI50,Malme-3M,> 100 µM (inactive)
same,GI50,SF-295,> 100 µM (inactive)
same,GI50,NCI-H226,> 100 µM (inactive)
same,GI50,SR,> 100 µM (inactive)
same,GI50,SNB-19,> 10 µM (inactive)
same,GI50,HT-29,> 100 µM (inactive)
same,GI50,HCC 2998,> 100 µM (inactive)
same,GI50,CAKI-1,> 100 µM (inactive)
same,GI50,NCI-H522,> 100 µM (inactive)
same,GI50,RXF 393,86.1 µM (inactive)
same,GI50,MCF7,> 100 µM (inactive)
same,GI50,786-0,> 100 µM (inactive)
same,GI50,M14,> 100 µM (inactive)
same,GI50,COLO 205,> 100 µM (inactive)
same,GI50,SN12C,> 100 µM (inactive)
same,GI50,NCI/ADR-RES,> 100 µM (inactive)
same,GI50,SW-620,> 100 µM (inactive)
same,GI50,U-251,> 100 µM (inactive)
same,GI50,SK-MEL-2,> 100 µM (inactive)
same,GI50,T47D,> 100 µM (inactive)

# Reference: ChEMBL document CHEMBL1201862, “PubChem BioAssay data set” (2004)
